This is an account of results in ChEMBL document CHEMBL1141514, “QSAR studies on CCR2 antagonists with chiral sensitive hologram descriptors” (Bioorg Med Chem Lett, 2008).

Chain of C-C chemokine receptor type 2 (P41597 whole entry): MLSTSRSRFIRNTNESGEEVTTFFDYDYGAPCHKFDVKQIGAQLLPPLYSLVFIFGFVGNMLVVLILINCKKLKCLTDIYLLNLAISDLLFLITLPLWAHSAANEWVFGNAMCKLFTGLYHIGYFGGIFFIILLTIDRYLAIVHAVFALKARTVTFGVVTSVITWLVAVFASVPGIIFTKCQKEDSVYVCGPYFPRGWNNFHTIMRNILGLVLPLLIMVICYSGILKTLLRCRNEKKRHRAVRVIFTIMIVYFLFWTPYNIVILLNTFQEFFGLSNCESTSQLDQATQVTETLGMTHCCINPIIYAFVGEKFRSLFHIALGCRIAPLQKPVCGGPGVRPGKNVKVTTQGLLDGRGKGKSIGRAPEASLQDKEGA

The first assay concerns the target C-C chemokine receptor type 2 (Homo sapiens, UniProt P41597). Kind of assay: Antagonist activity at human CCR2b receptor. Format: functional. As to conditions: read-out: IC50.
As to `O=C(NCc1cc(C(F)(F)F)cc(C(F)(F)F)c1)C(CCN1CCC2(C=Cc3ccccc32)CC1)C1CC1` (configuration not stated), the IC50 stood at 98 nM.
Same read-out and setting: with `C[C@H]1CN([C@@H]2CC[C@](CC3CCC3)(C(=O)NCc3cc(C(F)(F)F)cc(C(F)(F)F)c3)C2)CC[C@]12C=Cc1ccccc12` the figure was 19 nM.
On the same count and under the same terms, with `C[C@H]1CN([C@@H]2CC[C@H](C(=O)NCc3cc(C(F)(F)F)cc(C(F)(F)F)c3)C2)CC[C@]12C=Cc1ccccc12` the figure was 20 nM; with `C[C@H]1CN([C@@H]2CC[C@](C)(C(=O)NCc3cc(C(F)(F)F)cc(C(F)(F)F)c3)C2)CC[C@]12C=Cc1ccccc12`, 9 nM; with `CC(C)[C@]1(C(=O)NCc2cc(C(F)(F)F)cc(C(F)(F)F)c2)CC[C@@H](N2CC[C@]3(C=Cc4ccccc43)[C@@H](C)C2)C1`, 7.6 nM.
The same measure, in the same setting: the value for `C[C@H]1CN([C@@H]2CC[C@](C)(C(=O)NCc3cc(F)cc(C(F)(F)F)c3)C2)CC[C@]12C=Cc1ccccc12` was 4 nM; that for `CSC[C@]1(C(=O)NCc2cc(C(F)(F)F)cc(C(F)(F)F)c2)CC[C@@H](N2CC[C@]3(C=Cc4ccccc43)[C@@H](C)C2)C1` was 13 nM.
Regarding `CC(C)[C@]1(C(=O)NCc2cc(F)cc(C(F)(F)F)c2)CC[C@@H](N2CC[C@]3(C=Cc4ccccc43)[C@@H](C)C2)C1`, the IC50 turned out to be 3.1 nM.
Still for that read-out and setting: with `CC(C)C[C@]1(C(=O)NCc2cc(F)cc(C(F)(F)F)c2)CC[C@@H](N2CC[C@]3(C=Cc4ccccc43)[C@@H](C)C2)C1` the figure was 3.9 nM; with `CSC[C@]1(C(=O)NCc2cc(F)cc(C(F)(F)F)c2)CC[C@@H](N2CC[C@]3(C=Cc4ccccc43)[C@@H](C)C2)C1`, 3.5 nM; with `CS[C@]1(C(=O)NCc2cc(F)cc(C(F)(F)F)c2)CC[C@@H](N2CC[C@]3(C=Cc4ccccc43)[C@@H](C)C2)C1`, 67 nM.
`CC(CCN1CCC2(C=Cc3ccccc32)CC1)C(=O)NCc1cc(C(F)(F)F)cc(C(F)(F)F)c1` (configuration not stated): the IC50 came out at 231 nM.
`C=CCC(CCN1CCC2(C=Cc3ccccc32)CC1)C(=O)NCc1cc(C(F)(F)F)cc(C(F)(F)F)c1` (configuration not stated): the IC50 is 193 nM.
Take `C[C@H]1CN(CCC(C(=O)NCc2cc(C(F)(F)F)cc(C(F)(F)F)c2)C2CC2)CC[C@@]12C=Cc1ccccc12` (some centres not stated): the IC50 was 14 nM.
As to `C[C@H]1CN(CCC(C(=O)NCc2cc(C(F)(F)F)cc(C(F)(F)F)c2)C2CCC2)CC[C@@]12C=Cc1ccccc12` (some centres not stated), the IC50 was found to be 28 nM.
For `O=C(NCc1cc(C(F)(F)F)cc(C(F)(F)F)c1)C(CCN1CCC(c2ccc(F)cc2)CC1)C1CC1` (configuration not stated), the IC50 was 280 nM.
For `O=C(NCc1cc(C(F)(F)F)cc(C(F)(F)F)c1)C(CCN1CCC(c2ccccc2)CC1)C1CC1` (configuration not stated), the IC50 came out at 285 nM.
With `CCCC(CCN1CCC(c2ccccc2)CC1)C(=O)NCc1cc(C(F)(F)F)cc(C(F)(F)F)c1` (configuration not stated), the IC50 is 126 nM.
For the compound `CCC[C@]1(C(=O)NCc2cc(C(F)(F)F)cc(C(F)(F)F)c2)CC[C@@H](N2CC[C@]3(C=Cc4ccccc43)[C@@H](C)C2)C1`, the IC50 was 16 nM.
On the same count and under the same terms, with `CS[C@]1(C(=O)NCc2cc(C(F)(F)F)cc(C(F)(F)F)c2)CC[C@@H](N2CC[C@]3(C=Cc4ccccc43)[C@@H](C)C2)C1` the figure was 28 nM.
With `CC(C)C[C@]1(C(=O)NCc2cc(C(F)(F)F)cc(C(F)(F)F)c2)CC[C@@H](N2CC[C@]3(C=Cc4ccccc43)[C@@H](C)C2)C1`, the IC50 stood at 8 nM.
On the same count and under the same terms, with `C=CCC(CCN1CCC(c2ccccc2)CC1)C(=O)NCc1cc(C(F)(F)F)cc(C(F)(F)F)c1` (configuration not stated) the figure was 642 nM; with `CC(C)C(CCN1CCC2(C=Cc3ccccc32)CC1)C(=O)NCc1cc(C(F)(F)F)cc(C(F)(F)F)c1` (configuration not stated), 204 nM; with `C[C@H]1CN(CCC(CC2CC2)C(=O)NCc2cc(C(F)(F)F)cc(C(F)(F)F)c2)CC[C@@]12C=Cc1ccccc12` (some centres not stated), 25 nM.
As to `Nc1nc([C@@H](CCN2CCC(c3ccccc3)CC2)C(=O)NCc2cc(C(F)(F)F)cc(C(F)(F)F)c2)cs1`, the IC50 is 229 nM.
For `C[C@H]1CN([C@@H]2CC[C@@](C(=O)NCc3cc(F)cc(C(F)(F)F)c3)(C3CC3)C2)CC[C@]12C=Cc1ccccc12`, the IC50 is 1.9 nM.

The assay is the same for the next values; noted with them: read-out: Log IC50 (converted).
For `O=C(NCc1cc(C(F)(F)F)cc(C(F)(F)F)c1)[C@@H](NCCN1CCC(c2ccccc2)CC1)c1ccccc1`, the IC50 was 832 nM.
